Test results: the supplement of paper PMC8837787

Test system: Saccharomyces cerevisiae ABC16-Green Monster
Assay: growth inhibition at single dose (up to 150 µM), below the 70% cut-off for dose-response; higher = more potent
Details: 18 h; 30 °C; YPD
How it was run: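 Data are given as percent growth inhibition. Log-phase drug-sensitive S. cerevisiae ABC16-Green Monster cells (OD600 0.1–0.2, 200 µl per well in 96-well plates) were treated in biological duplicates with each library compound at a single 150 µM dose, with untreated cultures alongside, and OD600 was measured at 0 h and after 18 h at 30 °C. Compounds falling below 70% in both replicates were not taken to dose-response.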

SMILES	growth inhibition at single dose
CC/N=c1\scc(-c2ccc(Cl)cc2)n1/N=C/c1ccc[nH]1	< 70%
Clc1ccc(CN2CCN(C3=NCCN3)CC2)cc1Cl	< 70%
CCOc1cc2c(cc1OCC)C(c1cc(Cl)c(O)c(OCC)c1)NCC2 (configuration not stated)	< 70%
COc1ccc(CCN2C(=O)c3[nH]nc(-c4cc(Cl)c(C)cc4O)c3C2c2ccccc2F)cc1 (configuration not stated)	< 70%
c1nc(NCc2ccc(CN3CCOCC3)cc2)c2sccc2n1	< 70%
CC(=O)NC(C)CCc1ccc(-c2csc(-c3ccc(NC(=O)C4CC4)cc3)n2)cc1 (configuration not stated)	< 70%
O=C(N[C@H](Cc1ccccc1)C(=O)Nc1ccccc1N1CCOCC1)c1cccs1	< 70%
COc1cc2c(cc1NC(=O)C(C)N1CCC(C(N)=O)CC1)oc1ccccc12 (configuration not stated)	< 70%
CN(C)S(=O)(=O)c1cccc(C(=O)Nc2cnc3ccccc3c2)c1	< 70%
CN1N=C2c3ccccc3CCC2C1c1ccc(C(F)(F)F)cc1 (configuration not stated)	< 70%
O=C(Cn1ccnc1[N+](=O)[O-])NCc1ccccc1	< 70%
CN(C)c1ccc(C=Cc2nc(=O)c3ccccc3o2)cc1	< 70%
c1ccc(Oc2ccc(-c3cc(CN4CCOCC4)[nH]n3)cc2)cc1	< 70%
CC(C)(C)c1cc(NC(=O)COc2ccc3[nH]c4ccccc4c(=O)c3c2)n(-c2ccccc2)n1	< 70%
Cc1nc(C(=O)N2CCc3c(c(C(=O)NC4CCCC4)nn3CC(C)C)C2)cs1	< 70%
Cc1nn(C)c(C)c1NS(=O)(=O)c1c(Cl)cc(-c2ccnc(N3CCNCC3)c2)cc1Cl	< 70%
Cc1cc(C)n(-c2ccc(NC(=O)C3CCN(Cc4cnc(C)s4)CC3)cc2)n1	< 70%
Cc1cc(C2=NOC(c3cc(Cl)c(F)c(Cl)c3)(C(F)(F)F)C2)ccc1C(=O)NCc1ccc2c(c1)C(C)(C)OB2O (configuration not stated)	< 70%
CCCNC(=O)N1CCC2(CC1)CC(=O)c1cc(C)ccc1O2	< 70%
COc1cc(NC(C)CCCN)c2ncccc2c1 (configuration not stated)	< 70%
C=CCn1c[n+](C2=C(NS(=O)(=O)c3ccc(C)cc3)C(=O)c3ccccc3C2=O)c2ccccc21	< 70%

SMILES	growth inhibition at single dose
CC(C)C(NC(=O)Cc1cccc2ccccc12)C(=O)Nc1cccc(C#N)c1 (configuration not stated)	< 70%
CCOc1cc(Cl)c(C(C)NC(=O)c2ccccc2)cc1OCC (configuration not stated)	< 70%
O=C(Nc1ccc(Cl)cc1C(=O)Nc1ccncc1)c1ccc(Cl)cc1Cl	< 70%
N=C1NC(=O)C(Cc2ccc(OC(F)(F)F)cc2)S1 (configuration not stated)	< 70%
COc1ccc(Nc2nc(NN=Cc3ccc(O)cc3)nc(Nc3ccc([N+](=O)[O-])cc3)n2)cc1	< 70%
O=C(CCC1CCCCC1)Nc1cccc(-c2nnc(-c3ccco3)o2)c1	< 70%
CCOc1cc2c(cc1OCC)C(c1cc(C)c(O)c(C)c1)NCC2 (configuration not stated)	< 70%
CCCCn1nc(C)c(C(=O)Nc2nc3ccccc3[nH]2)c1Cl	< 70%
O=C(Nc1ccccc1O)c1ccc(Oc2cccc(C(=O)Nc3ccccc3O)c2)cc1	< 70%
Oc1c(CN2CCN(c3ccccc3F)CC2)cc(Br)c2cccnc12	< 70%
COc1ccc(CNC2CCN(c3ccc(NC(=O)c4cccc(Cl)c4)cc3)CC2)cc1OC	< 70%
CCOC(=O)c1noc(N)c1-c1ccccc1	< 70%
CCN1CCN(Cc2ccc(NC(=O)c3cc4ccc5cccnc5c4[nH]3)cc2)CC1	< 70%
CCC(=O)c1cn(S(=O)(=O)c2ccc(C)cc2)c2ccccc12	< 70%
COc1ccc(C=C2SC(=N)N(c3ccccc3OC)C2=O)cc1	< 70%
O=C(Nc1cc(S(=O)(=O)N2CCCC2)ccc1O)c1sccc1-n1cccc1	< 70%
COc1cc(NS(=O)(=O)c2ccc(C)cc2)c(OC)cc1Cl	< 70%
N#Cc1ccnc(N2CCN(C(=O)c3cccc(-n4cccc4)c3)CC2)c1	< 70%
CN(c1ccccc1)S(=O)(=O)c1ccc(NC(=O)c2cccs2)cc1	< 70%
O=C(Nc1ccc(CN2CCOCC2)cc1)c1ccc(-c2ccc(Br)cc2)o1	< 70%
CC(=O)Nc1cccc2c1CCN(c1ncnc3sccc13)C2	< 70%

SMILES	growth inhibition at single dose
O=C(Nc1cccc(C2=NCCN2)c1)Nc1cccc(C2=NCCN2)c1	< 70%
COc1cncc(-c2cncc(N3CCN(c4ccncc4)CC3)n2)c1	< 70%
CCCCCCc1cc2cc(-c3csc(C=Cc4ccccc4)n3)c(=O)oc2cc1O	< 70%
COCCN(C(=O)Cc1cccs1)C(C(=O)NCc1ccc(OC)cc1)c1ccc(C(C)C)cc1 (configuration not stated)	< 70%
Cc1cc(NCC(C)C)c2n[nH]c(-c3ccccc3)c2n1	< 70%
COc1ccc(CN2CCN(C(=O)c3ccc(-n4cccn4)cc3)CC2)cc1F	< 70%
O=C(NCC1Cc2cccc(-c3ccncc3)c2O1)c1csc2c1CCCC2 (configuration not stated)	< 70%
CC1=Nc2ccc(Cl)cc2C(c2ccccc2)N1CCNC(=O)CN(C)C (configuration not stated)	< 70%
CCNC(=O)C(C)Nc1nc(-c2cccnc2)nc2sc(C)c(C)c12 (configuration not stated)	< 70%
N#Cc1ccc(NCCNc2nc3ccccc3s2)nc1	< 70%
O=C(Nc1ccc(N2CCN(c3ncccc3C(F)(F)F)CC2)nc1)c1cccs1	< 70%
COc1ccc(NC(=O)c2ccoc2)cc1S(=O)(=O)Nc1ccc(Br)cc1	< 70%
Oc1ccccc1CN1CCN(C(c2ccccc2)c2ccccc2)CC1	< 70%
O=C(NC1CC1)c1ccc(CN(C2CC2)S(=O)(=O)c2ccccc2F)cc1	< 70%
CCn1c(CN2CCN(Cc3ccccc3)CC2)nc2cc(NC(=O)c3cccs3)ccc21	< 70%
Cc1ccc(-c2cnn3c(NCCN(C)C)cc(C)nc23)cc1	< 70%
CC1CN(C(=O)c2ccc(S(=O)(=O)Nc3ccccc3F)cc2)CC(C)O1 (configuration not stated)	< 70%
Cc1c(CN2CCN(c3ccccn3)CC2)noc1-c1ccc(F)cc1	< 70%
Cc1ccc(S(=O)(=O)Nc2cccc3ncccc23)s1	< 70%
CNc1snc(C)c1C(=O)NCCOc1ccc(OC)cc1	< 70%
CN(C)c1ccc(-c2nc3cc(N)ccc3[nH]2)cc1	< 70%

SMILES	growth inhibition at single dose
c1ccc(Oc2ccc(-c3cncc(-c4ccc5[nH]ccc5c4)n3)cc2)cc1	< 70%
Cc1ccnc(NC(c2cccc(OCc3ccccc3)c2)c2ccc3cccnc3c2O)c1 (configuration not stated)	< 70%
CC(=O)C1C2C(=O)N(C(C)(C)C)C(=O)C2C2C=Cc3ccc4cccnc4c3N21 (configuration not stated)	< 70%
CC(C)(C)c1ccc(C2CC3=Nc4ccccc4N(C(=O)c4ccccc4Cl)C(c4ccc(F)cc4)C3=C(O)C2)cc1 (configuration not stated)	< 70%
CC(=O)Nc1ccc(-c2noc(CC3CCCN(Cc4cccc(F)c4C)C3)n2)cc1 (configuration not stated)	< 70%
NS(=O)(=O)c1cncc(-c2ccc3nccc(-c4cn[nH]c4)c3n2)c1	< 70%
CCOc1cc2c(cc1OCC)C(c1cc(Cl)ccc1O)NCC2 (configuration not stated)	< 70%
Cc1cc(C)c2c(c1)OCN(Cc1ccccc1Cl)C2	< 70%
O=C(CN1C(=O)CCOc2ccccc21)N1CCN(C(=O)C2COc3ccccc3O2)CC1 (configuration not stated)	< 70%
O=C1Nc2ccc(Br)cc2C12NCCc1c2[nH]c2ccccc12 (configuration not stated)	< 70%
CCOc1ccc2cc(-c3nn(CC4CCN(C)CC4)c4ncnc(N)c34)ccc2c1	< 70%
Cc1ccc(C(NCC(=O)Nc2sccc2C(N)=O)c2cccs2)cc1 (configuration not stated)	< 70%
Cc1cccc2nc(C(=O)Nc3ccc4c(c3)nc3n4CCCCC3)cn12	< 70%
COc1cccc(C(=O)Nc2ccc(-c3nc4ccccc4[nH]3)cc2)c1	< 70%
Cc1cc(Nc2ccc(C(F)(F)F)cc2)n2ccnc2n1	< 70%
O=C(NCCCc1nc2ccccc2[nH]1)c1[nH]nc2ccccc12	< 70%
COc1ccc(C2N(C)c3ccccc3N2C)cc1	< 70%
COc1ccc(-c2cn3c(C(=O)Nc4ccccc4Cl)c(-c4ccccc4)c4c3n2CCCC4)cc1	< 70%
Nc1ncnc2c1ncn2[C@@H]1O[C@H](COS(=O)(=O)NC(=O)c2ccccc2O)[C@@H](O)[C@H]1O	< 70%
